Tests used:
Conditions in all cases: in vivo
[1] = test system: Rattus norvegicus; assay: Concentration accumulated in blood at 24 hr r after intravenous administration in rat; assay type: ADME, organism-based
[2] = test system: Rattus norvegicus; assay: Concentration accumulated in kidney at 24 hr r after intravenous administration in rat; assay type: ADME, organism-based
[3] = test system: Rattus norvegicus; assay: Concentration accumulated in thyroid at 24 hr r after intravenous administration in rat; assay type: ADME, organism-based, Thyroid gland
[4] = test system: Rattus norvegicus; assay: Concentration accumulated in ovary at 24 hr r after intravenous administration in rat; assay type: ADME, organism-based, Female gonad
[5] = test system: Rattus norvegicus; assay: Concentration accumulated in thyroid at 0.5 hr after intravenous administration in rat; assay type: ADME, organism-based, Thyroid gland
[6] = test system: Rattus norvegicus; assay: Concentration accumulated in adrenal cortex at 0.5 hr after intravenous administration in rat; assay type: ADME, organism-based
[7] = test system: Rattus norvegicus; assay: Concentration accumulated in kidney at 0.5 hr after intravenous administration in rat; assay type: ADME, organism-based
[8] = test system: Rattus norvegicus; assay: Concentration accumulated in ovary at 0.5 hr after intravenous administration in rat; assay type: ADME, organism-based, Female gonad
[9] = test system: Rattus norvegicus; assay: Concentration accumulated in adrenal cortex at 24 hr r after intravenous administration in rat; assay type: ADME, organism-based
[10] = test system: Rattus norvegicus; assay: Concentration accumulated in blood at 0.5 hr after intravenous administration in rat; assay type: ADME, organism-based
[11] = test system: Rattus norvegicus; assay: Concentration accumulated in liver at 24 hr r after intravenous administration in rat; assay type: ADME, organism-based
[12] = test system: Rattus norvegicus; assay: Concentration accumulated in liver at 0.5 hr after intravenous administration in rat; assay type: ADME, organism-based

Row | Structure (SMILES) | Dose/g [1] | Dose/g [2] | Dose/g [3] | Dose/g [4] | Dose/g [5] | Dose/g [6] | Dose/g [7] | Dose/g [8] | Dose/g [9] | Dose/g [10] | Dose/g [11] | Dose/g [12]
1 | C[C@H](OC(=O)c1ccccc1I)C1CCC2C3CC=C4CC(O)CCC4(C)C3CCC21C (stereo not given in full) | 0.05% | 0.11% | 511.17% | 0.26% | 4.96% | 10.04% | 1.29% | 1.49% | 0.31% | 0.59% | 0.2% | 3.92%
2 | CC(C)CCCC(C)C1CCC2C3CC(CI)C4=C(CCC(O)C4)C3CCC12C (stereo not given) | 0.87% | 0.76% | 111.3% | 33.1% | 1.37% | 17.89% | 0.45% | 4.1% | 116.21% | 2.35% | 1.34% | 4.57%

Other lines, results leading:

Row | Dose/g [1] | Dose/g [2] | Dose/g [3] | Dose/g [4] | Dose/g [5] | Dose/g [6] | Dose/g [7] | Dose/g [8] | Dose/g [9] | Dose/g [10] | Dose/g [11] | Dose/g [12] | Structure (SMILES)
3 | < 0.01% | 0.02% | 24.65% | 0.07% | 1.4% | 1.66% | 0.47% | 0.53% | 0.55% | 0.08% | 0.22% | 1.28% | C[C@@H](NC(=O)c1ccccc1I)C1CCC2C3CC=C4CC(O)CCC4(C)C3CCC21C (stereo not given in full)
4 | 0.02% | 0.05% | 52.36% | 0.26% | 2.93% | 6.83% | 1.59% | 1.67% | 1.23% | 0.25% | 0.11% | 6.04% | C[C@@H](OC(=O)c1ccccc1I)C1CCC2C3CC=C4CC(O)CCC4(C)C3CCC21C (stereo not given in full)
5 | < 0.01% | 0.01% | 51.14% | 0.09% | 2.2% | 2.49% | 0.41% | 0.58% | 0.1% | 0.1% | 0.06% | 3.85% | C[C@H](NC(=O)c1ccccc1I)C1CCC2C3CC=C4CC(O)CCC4(C)C3CCC21C (stereo not given in full)
